Laboratory results reported in ChEMBL document CHEMBL4665632, “Design, synthesis and biological evaluation of pyridone-aminal derivatives as MNK1/2 inhibitors” (Bioorg Med Chem, 2019).
Activity calls are given as the source filed them. The calls are words filed in the database; no cut-off is given here.

Assays:
[1] = target: T1, MAP kinase-interacting serine/threonine-protein kinase 1 (Homo sapiens, UniProt Q9BUB5); assay: (§1) Inhibition of recombinant human N-terminal DYKDDDDK-tagged MNK1(1 to 424 residues) expressed in baculovirus expression system using TATKSGSTTKNR as substrate preincubated for 10 mins followed by ATP addition and measured after 40 mins by luminescence based assay
Target sequence in this assay (Q9BUB5 whole entry, the tested form may be a part): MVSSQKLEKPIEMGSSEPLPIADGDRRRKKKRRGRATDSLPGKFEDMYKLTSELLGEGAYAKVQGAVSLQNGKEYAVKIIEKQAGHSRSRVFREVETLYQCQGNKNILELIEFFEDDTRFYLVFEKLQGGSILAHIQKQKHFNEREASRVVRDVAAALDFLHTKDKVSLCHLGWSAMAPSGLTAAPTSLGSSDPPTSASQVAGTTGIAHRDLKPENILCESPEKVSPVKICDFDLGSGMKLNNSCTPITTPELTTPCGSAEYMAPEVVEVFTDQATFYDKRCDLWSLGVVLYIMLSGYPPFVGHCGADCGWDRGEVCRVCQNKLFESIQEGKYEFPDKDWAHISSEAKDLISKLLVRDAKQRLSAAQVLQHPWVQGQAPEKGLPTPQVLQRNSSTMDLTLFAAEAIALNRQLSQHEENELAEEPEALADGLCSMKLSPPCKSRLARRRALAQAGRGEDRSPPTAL

A549 = assay: Antiproliferative activity against human A549 cells assessed as reduction in cell viability incubated at 20 uM for 72 hrs by MTT assay relative to control; type: functional
[2] = target: T1, MAP kinase-interacting serine/threonine-protein kinase 1; assay: Inhibition of MNK1 (unknown origin) at 100 nM incubated for 60 mins by HTRF assay
Target sequence in this assay (Q9BUB5 whole entry, looked up, the tested form may be a part): as the sequence (Q9BUB5 whole entry, the tested form may be a part) above

[3] = target: Receptor-type tyrosine-protein kinase FLT3 (Homo sapiens) (UniProt P36888); assay: Inhibition of FLT3 (unknown origin) at 500 nM relative to control
[4] = target: T1, MAP kinase-interacting serine/threonine-protein kinase 1; assay: Inhibition of MNK1 (unknown origin) at 500 nM relative to control
Target sequence in this assay (Q9BUB5 whole entry, looked up, the tested form may be a part): as the sequence (Q9BUB5 whole entry, the tested form may be a part) above

[5] = target: Cyclin-dependent kinase 2 (Homo sapiens) (UniProt P24941); assay: Inhibition of CDK2 (unknown origin) at 500 nM relative to control
[6] = target: T2, MAP kinase-interacting serine/threonine-protein kinase 2 (Homo sapiens, UniProt Q9HBH9); assay: as §1, with “Potency index, ratio of IC50 of eFT508 to IC50 of compound for inhibition” for “Inhibition”, “GST-tagged MNK2 (1” for “DYKDDDDK-tagged MNK1(1”, “465” for “424”; settings: time 50.0 min
Target sequence in this assay (Q9HBH9 whole entry, looked up): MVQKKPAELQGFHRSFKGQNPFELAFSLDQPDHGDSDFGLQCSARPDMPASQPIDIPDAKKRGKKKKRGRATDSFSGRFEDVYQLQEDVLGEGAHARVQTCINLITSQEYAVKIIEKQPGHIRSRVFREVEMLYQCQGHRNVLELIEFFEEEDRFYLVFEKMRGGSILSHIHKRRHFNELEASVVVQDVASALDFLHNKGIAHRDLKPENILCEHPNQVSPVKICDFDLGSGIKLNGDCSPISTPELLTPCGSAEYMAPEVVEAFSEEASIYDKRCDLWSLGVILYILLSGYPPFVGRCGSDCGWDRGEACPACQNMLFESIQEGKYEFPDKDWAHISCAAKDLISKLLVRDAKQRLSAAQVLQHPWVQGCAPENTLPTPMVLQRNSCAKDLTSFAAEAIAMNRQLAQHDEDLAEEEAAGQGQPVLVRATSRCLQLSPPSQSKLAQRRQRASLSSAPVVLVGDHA

[7] = target: AMP-activated protein kinase, AMPK (Homo sapiens) (UniProt P54646+O43741+P54619+Q9UGJ0+Q9Y478+Q13131+Q9UGI9); assay: Inhibition of AMPK (unknown origin) at 500 nM relative to control; type: protein-complex assay
[8] = target: Tyrosine-protein kinase JAK1 (Homo sapiens) (UniProt P23458); assay: Inhibition of JAK1 (unknown origin) at 500 nM relative to control
[9] = target: Macrophage colony-stimulating factor 1 receptor (Homo sapiens) (UniProt P07333); assay: Inhibition of CSF1R (unknown origin) at 500 nM relative to control
[10] = target: T2, MAP kinase-interacting serine/threonine-protein kinase 2; assay: Inhibition of recombinant human N-terminal GST-tagged MNK2 (1 to 465 residues) expressed in baculovirus expression system using TATKSGSTTKNR as substrate preincubated for 10 mins followed by ATP addition and measured after 40 mins by luminescence based assay
Target sequence in this assay (Q9HBH9 whole entry): as the sequence (Q9HBH9 whole entry, looked up) above

[11] = target: T1, MAP kinase-interacting serine/threonine-protein kinase 1; assay: as §1, with “Potency index, ratio of IC50 of eFT508 to IC50 of compound for inhibition” for “Inhibition”; settings: time 50.0 min
Target sequence in this assay (Q9BUB5 whole entry, looked up, the tested form may be a part): as the sequence (Q9BUB5 whole entry, the tested form may be a part) above

CT26 = assay: Antitumor activity against […] cells xenografted in BALB/c mouse assessed as tumor growth inhibition dosed ip for 14 days; type: functional, organism-based; settings: time 14.0 day
[12] = Antitumor activity against […] cells xenografted in BALB/c mouse assessed as tumor growth inhibition at 20 mg/kg, ip administered for 14 days relative to control; type: functional; settings: 336 h, time 14 day, read-out: TGI
K562 = assay: Antiproliferative activity against human K562 cells assessed as reduction in cell viability incubated for 72 hrs by MTT assay; type: functional, cell-based; settings: K562, 72 h
[13] = target: T3, Interleukin-1 receptor-associated kinase 4 (Homo sapiens) (UniProt Q9NWZ3); assay: Inhibition of IRAK4 (unknown origin) at 500 nM relative to control
T3 sequence (whole entry): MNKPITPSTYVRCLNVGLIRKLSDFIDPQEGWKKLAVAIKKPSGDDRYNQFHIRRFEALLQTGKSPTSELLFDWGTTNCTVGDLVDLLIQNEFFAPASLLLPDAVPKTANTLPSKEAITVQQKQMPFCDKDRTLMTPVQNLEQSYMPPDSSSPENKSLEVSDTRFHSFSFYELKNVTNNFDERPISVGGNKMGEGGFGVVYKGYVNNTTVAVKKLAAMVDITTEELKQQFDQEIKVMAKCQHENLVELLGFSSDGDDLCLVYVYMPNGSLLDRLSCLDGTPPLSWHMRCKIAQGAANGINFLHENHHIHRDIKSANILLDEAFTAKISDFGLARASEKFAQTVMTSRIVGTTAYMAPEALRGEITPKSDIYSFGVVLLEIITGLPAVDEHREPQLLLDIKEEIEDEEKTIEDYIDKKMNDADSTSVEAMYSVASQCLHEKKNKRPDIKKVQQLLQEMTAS

MV4-11 = assay: Antiproliferative activity against human MV4-11 cells assessed as reduction in cell viability incubated for 72 hrs by MTT assay; type: functional, cell-based; settings: MV4-11, 72 h
MDA-MB-435 = assay: Antiproliferative activity against human MDA-MB-435 cells assessed as reduction in cell viability at 20 uM incubated for 72 hrs by MTT assay relative to control; type: functional
[14] = Toxicity in BALB/c mouse xenografted with […] cells assessed as weight loss at 20 to 40 mg/kg, ip administered for 14 days; type: organism-based; settings: in vivo, 336 h, dose 20-40 mg/kg, time 14 day
[15] = target: Cyclin-dependent kinase 1 (Homo sapiens) (UniProt P06493); assay: Inhibition of CDK1 (unknown origin) at 500 nM relative to control
[16] = Antitumor activity against […] cells xenografted in BALB/c mouse assessed as tumor growth inhibition at 40 mg/kg, ip administered for 14 days relative to control; type: functional; settings: 336 h, time 14 day, read-out: TGI
[17] = target: T2, MAP kinase-interacting serine/threonine-protein kinase 2; assay: Inhibition of MNK2 (unknown origin) at 100 nM incubated for 60 mins by HTRF assay
Target sequence in this assay (Q9HBH9 whole entry, looked up): as the sequence (Q9HBH9 whole entry, looked up) above

[18] = target: T2, MAP kinase-interacting serine/threonine-protein kinase 2; assay: Inhibition of MNK2 (unknown origin) at 500 nM relative to control
Target sequence in this assay (Q9HBH9 whole entry, looked up): as above

[19] = target: T4, MAP kinase-interacting serine/threonine-protein kinase 1/2 (Homo sapiens) (UniProt Q9HBH9+Q9BUB5); assay: Inhibition of MNK1/MNK2 in […] cells assessed as reduction in eIF4E phosphorylation at 1 uM incubated for 24 hrs by Western blot analysis relative to control; type: cell-based
[20] = target: T4, MAP kinase-interacting serine/threonine-protein kinase 1/2 (Homo sapiens); assay: Inhibition of MNK1/MNK2 in […] cells assessed as reduction in eIF4E phosphorylation incubated for 24 hrs by Western blot analysis; type: cell-based
TMD8 = assay: Antiproliferative activity against human TMD8 cells assessed as reduction in cell viability incubated for 72 hrs by MTT assay; type: functional, cell-based; settings: TMD8, 72 h
[21] = target: Tyrosine-protein kinase BTK (Homo sapiens) (UniProt Q06187); assay: Inhibition of BTK (unknown origin) at 500 nM relative to control
[22] = target: T4, MAP kinase-interacting serine/threonine-protein kinase 1/2 (Homo sapiens); assay: Inhibition of MNK1/MNK2 in […] cells assessed as reduction in eIF4E level at 0.25 to 1 incubated for 24 hrs by Western blot analysis; type: cell-based; settings: dose microM 0.25-1, time 24.0 hrs
[23] = Antiproliferative activity against […] cells assessed as reduction in cell viability at 20 uM incubated for 72 hrs by MTT assay relative to control; type: functional, Mus musculus
HCT-116 = assay: Antiproliferative activity against human HCT-116 cells assessed as reduction in cell viability at 20 uM incubated for 72 hrs by MTT assay relative to control; type: functional

Chain of Receptor-type tyrosine-protein kinase FLT3 (Homo sapiens) (P36888 whole entry): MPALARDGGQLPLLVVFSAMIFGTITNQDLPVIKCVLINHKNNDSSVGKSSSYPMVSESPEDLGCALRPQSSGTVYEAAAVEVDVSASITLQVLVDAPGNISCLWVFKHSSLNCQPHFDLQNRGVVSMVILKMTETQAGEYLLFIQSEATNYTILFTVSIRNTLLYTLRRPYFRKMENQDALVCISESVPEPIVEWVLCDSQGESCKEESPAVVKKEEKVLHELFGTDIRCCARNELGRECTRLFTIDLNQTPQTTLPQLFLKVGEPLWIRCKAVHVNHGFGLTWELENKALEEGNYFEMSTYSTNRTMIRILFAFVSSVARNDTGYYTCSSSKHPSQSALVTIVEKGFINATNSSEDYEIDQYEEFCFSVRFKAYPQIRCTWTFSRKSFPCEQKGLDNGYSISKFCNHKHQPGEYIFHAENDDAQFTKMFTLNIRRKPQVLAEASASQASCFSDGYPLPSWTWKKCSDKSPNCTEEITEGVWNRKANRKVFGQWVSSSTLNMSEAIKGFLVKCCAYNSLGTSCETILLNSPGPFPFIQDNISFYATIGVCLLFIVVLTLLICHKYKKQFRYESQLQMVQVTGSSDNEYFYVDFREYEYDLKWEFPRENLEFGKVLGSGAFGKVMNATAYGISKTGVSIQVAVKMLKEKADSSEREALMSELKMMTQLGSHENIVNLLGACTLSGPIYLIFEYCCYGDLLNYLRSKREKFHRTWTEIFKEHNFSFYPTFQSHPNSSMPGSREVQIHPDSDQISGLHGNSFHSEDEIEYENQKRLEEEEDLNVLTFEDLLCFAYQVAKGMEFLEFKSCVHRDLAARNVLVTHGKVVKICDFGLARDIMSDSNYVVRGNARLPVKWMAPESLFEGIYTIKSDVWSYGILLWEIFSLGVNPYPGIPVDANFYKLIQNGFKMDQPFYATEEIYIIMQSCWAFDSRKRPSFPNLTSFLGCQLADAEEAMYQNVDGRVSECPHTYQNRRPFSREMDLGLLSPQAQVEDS
Chain of Macrophage colony-stimulating factor 1 receptor (Homo sapiens) (P07333 whole entry, the tested form may be a part): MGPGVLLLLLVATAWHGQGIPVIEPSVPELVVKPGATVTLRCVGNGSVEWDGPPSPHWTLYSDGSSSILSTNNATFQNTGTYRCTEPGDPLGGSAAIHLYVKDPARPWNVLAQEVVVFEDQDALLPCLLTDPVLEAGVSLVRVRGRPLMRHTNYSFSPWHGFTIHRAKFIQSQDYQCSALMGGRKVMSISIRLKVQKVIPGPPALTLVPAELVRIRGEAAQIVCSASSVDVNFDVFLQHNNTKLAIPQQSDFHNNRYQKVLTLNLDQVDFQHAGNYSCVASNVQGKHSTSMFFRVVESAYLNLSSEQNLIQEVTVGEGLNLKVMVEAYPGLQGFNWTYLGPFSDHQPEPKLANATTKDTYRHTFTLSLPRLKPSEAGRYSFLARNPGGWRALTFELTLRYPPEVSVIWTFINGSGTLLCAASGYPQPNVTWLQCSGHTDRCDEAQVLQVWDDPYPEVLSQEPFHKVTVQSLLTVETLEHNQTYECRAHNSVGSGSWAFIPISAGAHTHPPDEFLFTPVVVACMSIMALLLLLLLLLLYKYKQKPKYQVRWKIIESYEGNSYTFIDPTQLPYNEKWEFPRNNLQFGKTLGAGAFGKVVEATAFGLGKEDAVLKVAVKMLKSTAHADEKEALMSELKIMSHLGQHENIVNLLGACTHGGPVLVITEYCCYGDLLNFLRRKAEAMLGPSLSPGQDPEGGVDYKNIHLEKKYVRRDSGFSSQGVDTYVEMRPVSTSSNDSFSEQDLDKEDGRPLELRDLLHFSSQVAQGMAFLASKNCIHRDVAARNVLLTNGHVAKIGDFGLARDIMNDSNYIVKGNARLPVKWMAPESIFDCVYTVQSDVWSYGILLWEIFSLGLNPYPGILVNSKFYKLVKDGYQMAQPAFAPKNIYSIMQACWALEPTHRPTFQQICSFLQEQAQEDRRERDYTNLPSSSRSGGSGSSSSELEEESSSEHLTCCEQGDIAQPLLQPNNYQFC
Chain of Tyrosine-protein kinase BTK (Homo sapiens) (Q06187 whole entry): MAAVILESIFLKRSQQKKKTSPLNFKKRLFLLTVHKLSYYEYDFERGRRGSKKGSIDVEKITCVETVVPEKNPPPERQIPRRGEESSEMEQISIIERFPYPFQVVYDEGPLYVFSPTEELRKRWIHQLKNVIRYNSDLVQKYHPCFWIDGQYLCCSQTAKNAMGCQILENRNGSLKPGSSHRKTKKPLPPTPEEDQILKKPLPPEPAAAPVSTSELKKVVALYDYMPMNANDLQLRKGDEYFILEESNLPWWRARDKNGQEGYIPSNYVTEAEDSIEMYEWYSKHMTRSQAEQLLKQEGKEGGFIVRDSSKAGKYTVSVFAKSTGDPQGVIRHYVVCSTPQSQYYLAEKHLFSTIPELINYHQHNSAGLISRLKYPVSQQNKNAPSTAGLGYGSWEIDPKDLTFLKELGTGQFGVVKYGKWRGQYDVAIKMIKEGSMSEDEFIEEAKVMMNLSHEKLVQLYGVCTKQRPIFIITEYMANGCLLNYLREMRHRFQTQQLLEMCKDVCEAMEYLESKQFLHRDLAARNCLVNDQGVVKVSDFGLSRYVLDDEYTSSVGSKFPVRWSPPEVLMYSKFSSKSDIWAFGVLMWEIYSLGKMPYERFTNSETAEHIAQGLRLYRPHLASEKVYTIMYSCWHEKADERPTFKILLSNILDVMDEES
Chain of Cyclin-dependent kinase 1 (Homo sapiens) (P06493 whole entry, looked up): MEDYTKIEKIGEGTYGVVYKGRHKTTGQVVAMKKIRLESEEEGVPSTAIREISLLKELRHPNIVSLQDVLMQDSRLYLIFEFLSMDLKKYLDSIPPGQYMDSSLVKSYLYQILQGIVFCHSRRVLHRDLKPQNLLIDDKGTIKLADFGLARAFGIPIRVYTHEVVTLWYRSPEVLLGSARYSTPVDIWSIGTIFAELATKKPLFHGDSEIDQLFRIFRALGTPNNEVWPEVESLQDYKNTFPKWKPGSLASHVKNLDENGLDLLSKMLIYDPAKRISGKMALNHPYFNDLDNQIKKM

Cc1cc(Nc2cc(N3CCN(CCCN(C)C)CC3)ncn2)c(=O)n2c1C(=O)NC21CCCCC1
IC50 [1]: 7 nM
inhibition at 20 µM (A549): 41.3%
inhibition [2]: 76.5%
inhibition [3]: 9%
inhibition [4]: 96%
inhibition [5]: 7%
Ratio IC50 [6]: 2
inhibition [7]: 11%
inhibition [8]: 6%
inhibition [9]: 6%
IC50 [10]: 6.1 nM
Ratio IC50 [11]: 2
TGI (CT26): Dose-dependent effect
inhibition in vivo at 20 mg/kg [12]: 41.4%
IC50 (K562): 11700 nM
inhibition [13]: 21%
IC50 (MV4-11): 10000 nM
inhibition at 20 µM (MDA-MB-435): 49%
Activity [14]: Non-Toxic
inhibition [15]: 4%
inhibition in vivo at 40 mg/kg [16]: 60.4%
inhibition [17]: 91.2%
inhibition [18]: 103%
inhibition [19]: 100%
inhibition [20]: Dose-dependent effect
IC50 (TMD8): 910 nM
inhibition [21]: 3%
inhibition [22]: inactive
inhibition at 20 µM [23]: 58.3%
inhibition at 20 µM (HCT-116): 42.9%
